Consider two molecules from PMC4805298, “Activation of Plant Innate Immunity by Extracellular High Mobility Group Box 3 and Its Inhibition by Salicylic Acid” (PLoS Pathogens, 2016).

In experiment [1] the target is T1, HMGB3 (Arabidopsis thaliana, UniProt P93047).
T1 construct: ORF in pET30 Xa/LIC, 6xHis-tagged, E. coli BL21, Ni-NTA and Superdex 200 purified; ABRC ORF clone
T1 sequence (P93047 1-141): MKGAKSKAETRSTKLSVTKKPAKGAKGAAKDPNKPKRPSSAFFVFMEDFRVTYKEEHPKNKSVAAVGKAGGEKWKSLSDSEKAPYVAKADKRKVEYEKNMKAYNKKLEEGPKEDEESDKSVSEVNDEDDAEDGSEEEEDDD
The experiment is described as follows: photoaffinity crosslinking, immunoblot with anti-SA antibody. Type of experiment: binding. The settings on record: 50 uM 4AzSA, PBS, on ice, 254 nm UV 30 mJ; covalent. For orientation: In western blotting, separated proteins are transferred to a membrane and probed.

In experiment [2] the target is T1, HMGB3. The experiment is described as follows: SPR competition on 3AESA chip; competition of 4AzSA photoaffinity crosslinking. Type of experiment: binding. The settings on record: 1 uM HMGB3 in SPR; 50 uM 4AzSA in PBS for crosslinking; competitive.

As for `[N-]=[N+]=Nc1ccc(C(=O)O)c(O)c1` [4AzSA, 4-azido SA], the “photoaffinity crosslinking, immunoblot with anti-SA antibody” value at HMGB3 [1] is recorded as “HMGB3 was effectively crosslinked to 4AzSA by UV irradiation”. On to `O=C(O)c1ccccc1O` [SA, salicylic acid], for which the “SPR competition on 3AESA chip; competition of 4AzSA photoaffinity crosslinking” value on HMGB3 [2] is reported as “this binding was competed in the presence of increasing concentrations of SA”.
